Counter-ions that a name gives are not always drawn.
SMILES	melting point [°C]
CCN(c1ccccc1)S(=O)(=O)c1ccc(-n2[nH]c(C)c(Cc3cccnc3)c2=O)nc1 (as salt: hydrochloride) [Compound 43]	128
CCN(c1ccccc1)S(=O)(=O)c1ccc(-n2[nH]c(C)c(Cc3cccc(OCCN(C)C)c3)c2=O)nc1 (as salt: hydrochloride) [Compound 56, 6-(4-{3-[2-(dimethylamino)ethoxy]benzyl}-3-methyl-5-oxo-2,5-dihydro-1H-pyrazol-1-yl)-N-ethyl-N-phenylpyridine-3-sulfonamide hydrochloride]	124
Cc1[nH]n(-c2ccc(S(=O)(=O)N(C(C)C)C(C)C)cn2)c(=O)c1Cc1ccc(Cl)cc1Cl [Compound 15]	226
CCN(c1ccccc1)S(=O)(=O)c1ccc(-n2[nH]c(C)c(Cc3ccc(OCCN(C)C)cc3)c2=O)nc1 [Compound 49]	178
CCN(c1ccccc1)S(=O)(=O)c1ccc(-n2[nH]c(C)c(Cc3ccc(N(C)C)cc3)c2=O)nc1 [Compound 50]	182
CCN(c1ccccc1)S(=O)(=O)c1ccc(-n2[nH]c(C)c(Cc3cccc(OC)c3)c2=O)nc1 [Compound 55]	146
CCN(c1ccccc1)S(=O)(=O)c1ccc(-n2[nH]c(C)c(Cc3ccccc3OC)c2=O)nc1 [Compound 57]	108
CCN(c1ccccc1)S(=O)(=O)c1ccc(-n2[nH]c(C)c(Cc3ccc(OCCOC)cc3)c2=O)nc1 [Compound 61]	176
Cc1[nH]n(-c2ccc(S(=O)(=O)N(C)C)cn2)c(=O)c1Cc1cccnc1 [Compound 66, N,N-dimethyl-6-[3-methyl-5-oxo-4-(pyridin-3-ylmethyl)-2,5-dihydro-1H-pyrazol-1-yl]pyridine-3-sulfonamide]	212
CCN(c1ccccc1)S(=O)(=O)c1ccc(-n2[nH]c(C)c(Cc3cccc(OC)n3)c2=O)nc1 [Compound 78]	174
CCN(c1ccccc1)S(=O)(=O)c1ccc(-n2[nH]c(C)c(Cc3cncc(OC)c3)c2=O)nc1 [Compound 86]	138
CCN(c1ccccc1)S(=O)(=O)c1ccc(-n2[nH]c(C)c(Cc3cncc(C#N)c3)c2=O)nc1 [Compound 97, 6-{4-[(5-cyanopyridin-3-yl)methyl]-3-methyl-5-oxo-2,5-dihydro-1H-pyrazol-1-yl}-N-ethyl-N-phenylpyridine-3-sulfonamide]	164
CC(C)(C)NS(=O)(=O)c1ccc(-n2[nH]cc(Cc3cccnc3)c2=O)nc1 [Compound 98A, N-tert-butyl-6-[5-oxo-4-(pyridin-3-ylmethyl)-2,5-dihydro-1H-pyrazol-1-yl]pyridine-3-sulfonamide]	220
CN(C(C)(C)C)S(=O)(=O)c1ccc(-n2[nH]cc(Cc3ccccc3)c2=O)nc1 [Compound 100]	186
COc1cncc(Cc2c(C)[nH]n(-c3ccc(S(=O)(=O)N(C)C(C)(C)C)cn3)c2=O)c1 [Compound 102]	84
CCN(c1ccccc1)S(=O)(=O)c1ccc(-n2[nH]c(C)c(Cc3ccc(C#N)nc3)c2=O)nc1 [Compound 103]	120
CCN(c1ccccc1)S(=O)(=O)c1ccc(-n2[nH]cc(CC(=O)N(C)C)c2=O)nc1 [Compound 105]	168
CCOC(=O)Cc1[nH]n(-c2ccc(S(=O)(=O)N(CC)c3ccccc3)cn2)c(=O)c1Cc1ccccc1 [Compound 106, ethyl (4-benzyl-1-{5-[ethyl(phenyl)sulfamoyl]pyridin-2-yl}-5-oxo-2,5-dihydro-1H-pyrazol-3-yl)acetate]	156
CCN(c1ccccc1)S(=O)(=O)c1ccc(-n2[nH]c(CC(=O)N(C)C)c(Cc3ccccc3)c2=O)nc1 [Compound 109]	163
CCN(c1ccccc1)S(=O)(=O)c1ccc(-n2[nH]cc(CCC(=O)O)c2=O)nc1 [Compound 110]	214

Further lines, results first:

melting point [°C]	SMILES
146	COC(=O)CC(c1cccnc1)c1c[nH]n(-c2ccc(S(=O)(=O)NC(C)(C)C)cn2)c1=O (stereo not drawn) (as salt: HCl) [Compound 154, methyl 3-(2-[5-(tert-butylsulfamoyl)pyridin-2-yl]-3-oxo-2,3-dihydro-1H-pyrazol-4-yl)-3-(pyridin-3-yl)propanoate]
258	COC(=O)c1ccc(-n2[nH]c(C)c(Cc3ccccc3Cl)c2=O)nc1 (as salt: HCl) [Compound 170]
208	Cc1[nH]n(-c2ccccn2)c(=O)c1Cc1ccncc1 (as salt: HCl) [Compound 176]
132	Cc1[nH]n(-c2ccccn2)c(=O)c1Cc1cccc(N(C)C)c1 (as salt: HCl) [Compound 190]
160	CC(C)(C)OC(=O)c1ccc(-n2[nH]cc(Cc3cccnc3)c2=O)nc1 (as salt: HCl) [Compound 202]
172	CCN(c1ccccc1)S(=O)(=O)c1ccc(-n2[nH]c(C)c(Cc3cccc(C(=O)OC)c3)c2=O)nc1 [Compound 111]
128	CCN(c1ccccc1)S(=O)(=O)c1ccc(-n2[nH]cc(CCC(=O)OC)c2=O)nc1 [Compound 112]
66	COC(=O)C(c1ccccc1)c1c[nH]n(-c2ccc(S(=O)(=O)NC(C)(C)C)cn2)c1=O (stereo not drawn) [Compound 113, methyl {2-[5-(tert-butylsulfamoyl)pyridin-2-yl]-3-oxo-2,3-dihydro-1H-pyrazol-4-yl}(phenyl)acetate]
80	COC(=O)CC(c1ccccc1)c1c[nH]n(-c2ccc(S(=O)(=O)N(C)C3CCCC3)cn2)c1=O (stereo not drawn) [Compound 114]
146	CCN(c1ccccc1)S(=O)(=O)c1ccc(-n2[nH]c(C)c(Cc3ccccc3C(=O)OC)c2=O)nc1 [Compound 116]
170	CCN(c1ccccc1)S(=O)(=O)c1ccc(-n2[nH]cc(CC3CCCC3)c2=O)nc1 [Compound 134]
108	CN([C@@H]1CC[C@H](CO)C1)S(=O)(=O)c1ccc(-n2[nH]cc(Cc3ccccc3)c2=O)nc1 [Compound 138, 6-(4-benzyl-5-oxo-2,5-dihydro-1H-pyrazol-1-yl)-N-[(1R,3S)-3-(hydroxymethyl)cyclopentyl]-N-methylpyridine-3-sulfonamide]
184	O=c1c(Cc2ccccc2)c[nH]n1-c1ccc(S(=O)(=O)N(C[C@@H](O)CO)C2CCCC2)cn1 [Compound 142, 6-(4-benzyl-5-oxo-2,5-dihydro-1H-pyrazol-1-yl)-N-cyclopentyl-N-[(2R)-2,3-dihydroxypropyl]pyridine-3-sulfonamide]
174	O=c1c(Cc2ccccc2)c[nH]n1-c1ccc(S(=O)(=O)N(CC(O)CO)c2ccccc2)cn1 (stereo not drawn) [Compound 143, 6-(4-benzyl-5-oxo-2,5-dihydro-1H-pyrazol-1-yl)-N-(2,3-dihydroxypropyl)-N-phenylpyridine-3-sulfonamide]
162	CCC(C)(C)N(C)S(=O)(=O)c1ccc(-n2[nH]cc(Cc3cccnc3)c2=O)nc1 [Compound 145]
80	CN(C1CCCC1)S(=O)(=O)c1ccc(-n2[nH]cc(C(CC(=O)NCC(F)(F)F)c3ccccc3)c2=O)nc1 (stereo not drawn) [Compound 146, 3-(2-{5-[cyclopentyl(methyl)sulfamoyl]pyridin-2-yl}-3-oxo-2,3-dihydro-1H-pyrazol-4-yl)-3-phenyl-N-(2,2,2-trifluoroethyl)propanamide]
